According to ChEMBL document CHEMBL5653631, “A Potent and Selective ULK1 Inhibitor Suppresses Autophagy and Sensitizes Cancer Cells to Nutrient Stress” (iScience, 2018):
One block for each molecule: values may come before it.

Assays:
[1] = target: Serine/threonine-protein kinase 32B (Homo sapiens) (UniProt Q9NY57); assay: Inhibition of human recombinant YANK2 at 500 nM related to control ULK1
[2] = target: T1, Serine/threonine-protein kinase TAO1 (Homo sapiens) (UniProt Q7L7X3); assay: Inhibition of human recombinant TAO1 at 500 nM related to control ULK1
T1 sequence (whole entry): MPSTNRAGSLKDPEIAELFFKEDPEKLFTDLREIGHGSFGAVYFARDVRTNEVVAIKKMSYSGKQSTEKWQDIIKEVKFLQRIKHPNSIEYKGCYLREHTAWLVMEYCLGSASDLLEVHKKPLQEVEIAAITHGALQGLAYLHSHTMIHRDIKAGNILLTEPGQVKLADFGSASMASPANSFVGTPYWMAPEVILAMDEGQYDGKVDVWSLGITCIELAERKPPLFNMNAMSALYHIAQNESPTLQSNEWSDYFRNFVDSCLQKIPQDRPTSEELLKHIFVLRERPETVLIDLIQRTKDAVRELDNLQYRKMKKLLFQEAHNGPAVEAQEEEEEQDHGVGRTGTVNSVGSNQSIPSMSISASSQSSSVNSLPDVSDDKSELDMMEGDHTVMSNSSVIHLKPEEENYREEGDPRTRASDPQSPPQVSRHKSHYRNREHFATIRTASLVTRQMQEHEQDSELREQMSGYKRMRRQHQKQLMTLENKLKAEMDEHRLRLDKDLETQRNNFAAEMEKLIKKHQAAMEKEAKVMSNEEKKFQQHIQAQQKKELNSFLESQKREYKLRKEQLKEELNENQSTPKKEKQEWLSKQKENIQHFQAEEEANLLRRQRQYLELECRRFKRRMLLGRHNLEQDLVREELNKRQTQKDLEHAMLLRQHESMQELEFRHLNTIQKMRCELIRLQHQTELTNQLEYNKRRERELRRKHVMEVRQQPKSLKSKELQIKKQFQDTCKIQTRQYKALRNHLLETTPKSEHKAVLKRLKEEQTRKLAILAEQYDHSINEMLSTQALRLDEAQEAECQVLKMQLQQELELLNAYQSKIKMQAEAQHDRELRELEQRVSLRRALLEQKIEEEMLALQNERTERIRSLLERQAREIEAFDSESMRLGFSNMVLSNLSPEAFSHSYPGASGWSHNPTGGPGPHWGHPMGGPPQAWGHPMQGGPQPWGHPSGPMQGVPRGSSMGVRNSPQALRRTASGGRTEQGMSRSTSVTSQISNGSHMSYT

[3] = target: Dual specificity tyrosine-phosphorylation-regulated kinase 1A (Homo sapiens) (UniProt Q13627); assay: Inhibition of human recombinant DYRK1A at 500 nM related to control ULK1
[4] = target: Serine/threonine-protein kinase/endoribonuclease IRE1 (Homo sapiens) (UniProt O75460); assay: Inhibition of human recombinant IRE1 at 500 nM related to control ULK1
[5] = target: MAP kinase-activated protein kinase 2 (Homo sapiens) (UniProt P49137); assay: Inhibition of human recombinant MAPKAPK2 at 500 nM in presence of ATP by radiometric assay relative to control
[6] = target: Vascular endothelial growth factor receptor 1 (Homo sapiens) (UniProt P17948); assay: Inhibition of human recombinant FLT1 at 15 nM in presence of ATP by radiometric assay relative to control
[7] = target: T2, Serine/threonine-protein kinase 17A (Homo sapiens) (UniProt Q9UEE5); assay: Inhibition of human recombinant DRAK1 at 15 nM in presence of ATP by radiometric assay relative to control
T2 sequence (whole entry): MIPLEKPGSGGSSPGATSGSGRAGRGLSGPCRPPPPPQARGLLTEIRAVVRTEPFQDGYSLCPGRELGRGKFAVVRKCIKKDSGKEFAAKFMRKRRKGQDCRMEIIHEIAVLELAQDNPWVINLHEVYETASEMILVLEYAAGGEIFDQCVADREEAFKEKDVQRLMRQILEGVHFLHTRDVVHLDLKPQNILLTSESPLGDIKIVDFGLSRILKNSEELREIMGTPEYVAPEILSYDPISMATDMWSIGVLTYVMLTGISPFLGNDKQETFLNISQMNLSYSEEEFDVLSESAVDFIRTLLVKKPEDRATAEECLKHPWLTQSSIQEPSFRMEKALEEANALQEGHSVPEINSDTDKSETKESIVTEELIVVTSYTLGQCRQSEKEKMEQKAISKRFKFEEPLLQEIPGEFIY

[8] = target: Tyrosine-protein kinase JAK2 (Homo sapiens) (UniProt O60674); assay: Inhibition of human recombinant JAK2 at 15 nM in presence of ATP by radiometric assay relative to control
[9] = target: T3, Cytoplasmic tyrosine-protein kinase BMX (Homo sapiens) (UniProt P51813); assay: Inhibition of human recombinant BMX at 40 nM related to control ULK1
T3 sequence (whole entry): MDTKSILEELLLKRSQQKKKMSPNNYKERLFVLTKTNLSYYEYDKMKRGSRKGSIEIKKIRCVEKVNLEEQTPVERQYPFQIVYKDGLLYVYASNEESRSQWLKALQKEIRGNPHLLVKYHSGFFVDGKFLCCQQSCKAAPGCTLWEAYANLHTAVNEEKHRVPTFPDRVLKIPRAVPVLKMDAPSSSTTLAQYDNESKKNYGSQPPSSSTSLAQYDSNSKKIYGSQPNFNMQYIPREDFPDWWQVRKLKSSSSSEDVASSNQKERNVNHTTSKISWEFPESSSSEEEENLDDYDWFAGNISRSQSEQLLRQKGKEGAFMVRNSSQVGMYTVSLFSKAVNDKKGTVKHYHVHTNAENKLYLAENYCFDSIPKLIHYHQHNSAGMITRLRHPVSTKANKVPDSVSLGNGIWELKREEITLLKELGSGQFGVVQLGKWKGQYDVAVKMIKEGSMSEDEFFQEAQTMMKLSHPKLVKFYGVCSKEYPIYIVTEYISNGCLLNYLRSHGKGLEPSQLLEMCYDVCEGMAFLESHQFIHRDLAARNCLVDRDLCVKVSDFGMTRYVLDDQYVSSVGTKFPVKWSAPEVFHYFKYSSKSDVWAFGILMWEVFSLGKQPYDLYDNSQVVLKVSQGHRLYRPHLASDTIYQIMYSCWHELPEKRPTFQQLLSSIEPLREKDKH

[10] = target: Homeodomain-interacting protein kinase 2 (Homo sapiens) (UniProt Q9H2X6); assay: Inhibition of human recombinant HIPK2 at 40 nM in presence of ATP by radiometric assay relative to control

Serine/threonine-protein kinase/endoribonuclease IRE1 (Homo sapiens), sequence (O75460 19-977 limits assumed): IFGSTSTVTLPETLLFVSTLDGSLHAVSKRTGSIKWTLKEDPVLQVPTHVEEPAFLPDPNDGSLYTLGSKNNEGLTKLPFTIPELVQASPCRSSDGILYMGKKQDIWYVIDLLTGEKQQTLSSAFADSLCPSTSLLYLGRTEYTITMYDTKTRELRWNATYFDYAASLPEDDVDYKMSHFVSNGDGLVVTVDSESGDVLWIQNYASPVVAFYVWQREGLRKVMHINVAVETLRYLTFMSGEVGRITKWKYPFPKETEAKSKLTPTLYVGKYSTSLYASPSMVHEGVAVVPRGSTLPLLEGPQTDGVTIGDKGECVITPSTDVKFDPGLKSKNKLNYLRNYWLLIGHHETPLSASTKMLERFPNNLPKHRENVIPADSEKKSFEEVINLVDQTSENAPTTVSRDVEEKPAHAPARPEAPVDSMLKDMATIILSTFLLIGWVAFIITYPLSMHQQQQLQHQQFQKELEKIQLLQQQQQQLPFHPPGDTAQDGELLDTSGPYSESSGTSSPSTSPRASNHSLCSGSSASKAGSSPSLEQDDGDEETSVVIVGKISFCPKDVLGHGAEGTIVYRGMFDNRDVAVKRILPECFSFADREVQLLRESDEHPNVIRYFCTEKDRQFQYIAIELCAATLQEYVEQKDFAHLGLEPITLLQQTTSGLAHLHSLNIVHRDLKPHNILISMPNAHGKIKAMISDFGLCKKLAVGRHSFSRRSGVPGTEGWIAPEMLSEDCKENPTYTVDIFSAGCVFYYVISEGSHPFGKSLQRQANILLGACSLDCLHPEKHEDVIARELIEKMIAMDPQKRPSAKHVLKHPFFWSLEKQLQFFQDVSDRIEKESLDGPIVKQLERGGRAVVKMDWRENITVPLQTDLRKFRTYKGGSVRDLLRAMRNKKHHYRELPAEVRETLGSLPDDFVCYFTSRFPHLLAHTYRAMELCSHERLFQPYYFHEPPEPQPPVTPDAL
MAP kinase-activated protein kinase 2 (Homo sapiens), sequence (P49137 whole entry, looked up): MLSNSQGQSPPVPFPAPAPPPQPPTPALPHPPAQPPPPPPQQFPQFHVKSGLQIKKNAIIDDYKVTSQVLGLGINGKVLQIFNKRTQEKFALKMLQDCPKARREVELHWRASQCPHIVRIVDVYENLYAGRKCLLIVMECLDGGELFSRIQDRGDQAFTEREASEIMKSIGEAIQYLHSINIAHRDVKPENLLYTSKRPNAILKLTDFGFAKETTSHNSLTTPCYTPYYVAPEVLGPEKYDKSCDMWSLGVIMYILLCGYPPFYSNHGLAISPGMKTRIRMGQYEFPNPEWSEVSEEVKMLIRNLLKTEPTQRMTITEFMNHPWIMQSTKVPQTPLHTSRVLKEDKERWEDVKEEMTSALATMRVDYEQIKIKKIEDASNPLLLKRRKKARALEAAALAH
Serine/threonine-protein kinase 32B (Homo sapiens), sequence (Q9NY57 whole entry): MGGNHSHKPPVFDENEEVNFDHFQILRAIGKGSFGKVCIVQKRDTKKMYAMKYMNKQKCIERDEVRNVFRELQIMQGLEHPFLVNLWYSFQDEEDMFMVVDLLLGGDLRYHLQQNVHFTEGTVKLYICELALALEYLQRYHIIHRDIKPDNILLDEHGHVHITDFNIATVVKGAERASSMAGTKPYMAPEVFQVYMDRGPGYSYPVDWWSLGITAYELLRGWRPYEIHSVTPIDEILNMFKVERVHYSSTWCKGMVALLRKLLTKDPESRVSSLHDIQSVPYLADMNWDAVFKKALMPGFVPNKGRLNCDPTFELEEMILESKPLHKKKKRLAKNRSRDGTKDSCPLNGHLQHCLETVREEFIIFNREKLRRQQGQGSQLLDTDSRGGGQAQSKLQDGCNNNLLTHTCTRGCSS
Vascular endothelial growth factor receptor 1 (Homo sapiens), sequence (P17948 whole entry): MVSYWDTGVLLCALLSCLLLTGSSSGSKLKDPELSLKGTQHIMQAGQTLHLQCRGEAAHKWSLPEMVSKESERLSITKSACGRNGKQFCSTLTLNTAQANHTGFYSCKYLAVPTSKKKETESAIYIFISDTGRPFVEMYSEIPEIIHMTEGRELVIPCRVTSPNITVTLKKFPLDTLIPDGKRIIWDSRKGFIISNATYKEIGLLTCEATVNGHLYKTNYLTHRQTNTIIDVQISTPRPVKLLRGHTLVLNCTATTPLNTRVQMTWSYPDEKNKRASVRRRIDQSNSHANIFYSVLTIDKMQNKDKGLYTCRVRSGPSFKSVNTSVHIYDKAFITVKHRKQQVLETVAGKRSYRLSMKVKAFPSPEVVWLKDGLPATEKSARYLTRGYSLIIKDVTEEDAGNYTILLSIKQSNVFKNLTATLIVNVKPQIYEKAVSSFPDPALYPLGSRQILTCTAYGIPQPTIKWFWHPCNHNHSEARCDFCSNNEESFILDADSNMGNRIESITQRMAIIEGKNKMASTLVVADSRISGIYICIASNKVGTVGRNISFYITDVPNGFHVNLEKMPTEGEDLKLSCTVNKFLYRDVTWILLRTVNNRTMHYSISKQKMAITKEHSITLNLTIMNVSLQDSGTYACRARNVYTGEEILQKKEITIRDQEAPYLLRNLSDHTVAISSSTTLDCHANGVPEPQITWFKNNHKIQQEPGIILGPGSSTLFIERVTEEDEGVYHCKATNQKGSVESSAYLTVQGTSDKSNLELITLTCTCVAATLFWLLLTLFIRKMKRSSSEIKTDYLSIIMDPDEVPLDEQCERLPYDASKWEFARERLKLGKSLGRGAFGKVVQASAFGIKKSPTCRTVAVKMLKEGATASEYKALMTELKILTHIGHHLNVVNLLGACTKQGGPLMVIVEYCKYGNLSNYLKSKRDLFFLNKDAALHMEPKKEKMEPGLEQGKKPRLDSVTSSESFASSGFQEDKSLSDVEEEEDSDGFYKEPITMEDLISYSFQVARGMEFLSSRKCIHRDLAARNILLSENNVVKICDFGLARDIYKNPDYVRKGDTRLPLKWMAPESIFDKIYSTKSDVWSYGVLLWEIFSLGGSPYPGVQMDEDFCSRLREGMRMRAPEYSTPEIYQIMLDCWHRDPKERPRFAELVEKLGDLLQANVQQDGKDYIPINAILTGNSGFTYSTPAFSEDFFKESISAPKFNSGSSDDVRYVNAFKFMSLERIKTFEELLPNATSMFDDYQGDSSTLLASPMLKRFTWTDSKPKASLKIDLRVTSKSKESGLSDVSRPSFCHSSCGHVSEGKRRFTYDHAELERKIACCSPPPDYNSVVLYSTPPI
Tyrosine-protein kinase JAK2 (Homo sapiens), sequence (O60674 whole entry): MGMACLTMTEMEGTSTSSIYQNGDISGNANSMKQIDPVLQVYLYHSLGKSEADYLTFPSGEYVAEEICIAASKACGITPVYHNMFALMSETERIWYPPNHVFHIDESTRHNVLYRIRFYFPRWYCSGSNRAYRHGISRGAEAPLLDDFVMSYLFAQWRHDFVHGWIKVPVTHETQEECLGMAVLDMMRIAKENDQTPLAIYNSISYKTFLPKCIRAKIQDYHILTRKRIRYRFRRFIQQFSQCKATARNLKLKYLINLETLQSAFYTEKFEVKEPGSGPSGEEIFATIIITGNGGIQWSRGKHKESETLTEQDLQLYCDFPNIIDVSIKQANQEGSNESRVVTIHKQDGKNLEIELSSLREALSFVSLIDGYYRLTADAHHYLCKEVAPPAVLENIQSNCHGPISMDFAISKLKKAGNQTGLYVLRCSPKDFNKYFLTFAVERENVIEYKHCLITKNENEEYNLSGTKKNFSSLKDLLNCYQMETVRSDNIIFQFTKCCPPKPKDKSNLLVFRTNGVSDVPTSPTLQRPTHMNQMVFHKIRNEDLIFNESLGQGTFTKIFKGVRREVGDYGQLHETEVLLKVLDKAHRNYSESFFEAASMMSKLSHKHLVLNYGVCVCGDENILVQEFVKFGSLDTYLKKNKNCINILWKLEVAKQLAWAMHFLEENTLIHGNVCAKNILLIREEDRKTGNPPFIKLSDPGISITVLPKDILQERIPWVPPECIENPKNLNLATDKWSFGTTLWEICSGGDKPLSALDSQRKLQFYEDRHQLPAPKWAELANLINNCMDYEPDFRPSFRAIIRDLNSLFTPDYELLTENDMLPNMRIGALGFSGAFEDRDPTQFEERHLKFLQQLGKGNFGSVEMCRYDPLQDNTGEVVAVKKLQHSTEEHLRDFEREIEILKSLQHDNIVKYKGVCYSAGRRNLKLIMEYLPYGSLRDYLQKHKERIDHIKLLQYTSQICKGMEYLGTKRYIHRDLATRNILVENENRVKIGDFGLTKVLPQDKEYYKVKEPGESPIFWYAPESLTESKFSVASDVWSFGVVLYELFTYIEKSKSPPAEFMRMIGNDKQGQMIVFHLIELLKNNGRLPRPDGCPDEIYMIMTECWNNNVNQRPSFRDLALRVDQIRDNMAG

fold change (FC) [1]: 0.03 | fold change (FC) [2]: 0.08 | fold change (FC) [3]: 0.01 | fold change (FC) [4]: 0 | inhibition [5]: 0%
SMILES: CNC(=O)c1ccccc1Oc1nc(Nc2cc(OC)c(OC)c(OC)c2)ncc1Br

inhibition [6]: 9% | inhibition [7]: 71% | inhibition [8]: 6%
SMILES: CC(C)[C@H](NC(=O)c1cc(-c2cnn3cc(-c4ccc(OCCN5CCCCC5)cc4)cnc23)cs1)C(F)(F)F

fold change (FC) [9]: 0.05 | inhibition [10]: 0%
SMILES: O=C(N[C@@H](C1CC1)C(F)(F)F)c1cc(-c2cnn3cc(-c4ccc(F)cc4)cnc23)cs1
